Results reported in patent US11000511B2, “Chemical compounds as antibiotics” (priority 2017, dated 2021).

Assays:
Assay type in all cases: biochemical
[1] = molecular target: T1, purified LasB protein from P. aeruginosa (Pseudomonas aeruginosa, UniProt P14756); assay: Fluorometric assay to determine Ki (Assay 2)
T1 construct: purchased Merck or Charles River Laboratories
Protocol: (§1) Experiments were therefore conducted (1) to measure the potency of inhibition of compounds of the invention against purified Pseudomonas aeruginosa LasB enzyme and also experiments were conducted (2) to measure the ability of compounds of the invention to inhibit LasB-catalysed elastin degradation. The first assay uses a commercial fluorescent synthetic peptide and purified LasB enzyme. The LasB hydrolysis kinetics are measured allowing the determination of the IC50 and Ki of the inhibitors; the second is a more physiological assay using dialysed Pseudomonas aeruginosa supernatant as source of enzyme, plus its natural substrate Elastin. It is an “end point assay” that determines the percentage of LasB inhibition by each compound for one particular time point and inhibitor concentration. Technical details are described below:
This assay uses commercially available substrate (Abz-Ala-Gly-Leu-Ala-p-Nitro-Benzyl-Amide (Ex: 340 nm, Em: 415 nm) from Peptide International) and purified LasB protein from P. aeruginosa (provided by Merck or Charles River Laboratories). It is performed to determine LasB elastase activity and assess compound inhibition in 96-well plate format. Some compounds of Formula (I) were assessed using the method of Assay 1 (described below). Other compounds of Formula (I) were assessed using the alternative but equivalent method of Assay 2 (described below).
Method: 10 to 140 ng/ml purified LasB is incubated with 250 μM Abz-Ala-Gly-Leu-Ala-p-Nitro-Benzyl-Amide in 50 mM Tris-HCl pH 7.4, 2.5 mM CaCl2), 0.01% of Triton X100 at 37° C. LasB activity (corresponding to fluorescence emission induced by substrate hydrolysis) is measured over 30 min at 37° C. with a fluorescence plate reader such as the Perkin Elmer Envision or similar. Different range of inhibitor concentrations are routinely assessed depending of inhibitor potency from 0.006 to 200 μM (Assay 1; 2-fold dilutions series) or from 0.0016 to 200 μM (Assay 2; 2-fold dilutions series) in order to determine IC50.
The equation used to calculate the Ki from IC50 is: Ki=IC50/(1+([S]/Km)) where [S]=250 μM and Km=214 μM.

[2] = molecular target: T2, LasB elastase activity in dialysed supernatant from P. aeruginosa strain PA01 (Pseudomonas aeruginosa, UniProt P14756); assay: Elastin Congo Red assay to determine % inhibition (Assay 2); details: read-out: Elastin hydrolysis % inhibition @ 50/25 μM inhibitor concentration Assay 2
T2 construct: uses as source of enzyme dialysed supernatant from P. aeruginosa; endogenous in cells; host or cells: P. aeruginosa strain PA01 culture supernatant, filtered and dialysed
Protocol: as §1
The Elastin assay uses as source of enzyme dialysed supernatant from P. aeruginosa and the elastin congo red as substrate. The natural LasB substrate, elastin, is complexed with the congo red dye (Elastin Congo Red, ECR). The elastolysis activity from the culture supernatant will degrade elastin and release the congo red dye into the supernatant. This red dye release can be measured with a spectrophotometer. Some compounds of Formula (I) were assessed using the method of Assay 1 (described below). Other compounds of Formula (I) were assessed using the alternative but equivalent method of Assay 2 (described below).
Method (Assay 2): To determine LasB elastase activity and assess compound inhibition, an overnight culture of P. aeruginosa strain PA01 is diluted in LB medium. After reaching an OD600 nm of 0.6, this culture is diluted and incubated for additional 18-24 h in a shaking incubator. Culture supernatants are recovered by centrifugation and filtrated through a […] filter. These supernatants are dialysed (filtration molecules <20 kDa) into a 50 mM Tris-HCl pH 7.4, 2.5 mM CaCl2 solution at 4° C. under agitation for 24 h. Supernatant dialysed is then mixed volume/volume with the ECR suspension (20 mg/mL of ECR in 100 mM Tris-HCl pH 7.4 buffer supplemented with 1 mM CaCl2) supplemented with TritonX 100 (final concentration of 0.01%) in presence of DMSO (positive control) and/or different concentrations of compound (routinely […]). As a negative control, the dialysed supernatant is replaced by Tris-HCl solution (50 mM Tris-HCl pH 7.4, 2.5 mM CaCl2). The mixed reaction is then incubated overnight in a 37° C. shaking incubator. The reaction supernatant is recovered by centrifugation and the release of congo-red is measured by its absorbance at 495 nm (OD495 nm).
Percentage inhibition is determined using the following equation: ((OD495 nm value of positive control−OD495 nm value of negative control)−(OD495 nm value of treated supernatant−OD495 nm value of negative control))/(OD495 nm value of positive control−OD495 nm value of negative control)×100.

[3] = molecular target: T1, purified LasB protein from P. aeruginosa; assay: Fluorometric assay to determine Ki (Assay 1); details: Ki (μM) Assay 1, purified LasB, substrate Abz-Ala-Gly-Leu-Ala-p-Nitro-Benzyl-Amide 250 μM, Ki calculated from IC50; inhibitor 0.006 to 200 μM
Summary of the method: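 Purified LasB (10 to 140 ng/ml) with 250 μM Abz-Ala-Gly-Leu-Ala-p-nitrobenzylamide in 50 mM Tris-HCl pH 7.4, 2.5 mM CaCl2, 0.01% Triton X100; hydrolysis read by fluorescence (Ex 340/Em 415 nm) over 30 min at 37° C. Inhibitor 2-fold series, 0.006–200 μM (Assay 1) or 0.0016–200 μM (Assay 2); IC50 converted to Ki via Ki=IC50/(1+[S]/Km), Km=214 μM.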

[4] = molecular target: T2, LasB elastase activity in dialysed supernatant from P. aeruginosa strain PA01; assay: Elastin Congo Red assay to determine % inhibition (Assay 1); details: read-out: Elastin hydrolysis % inhibition @ 50/25 μM inhibitor concentration Assay 1
Summary of the method: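 Enzyme source: PA01 culture supernatant (19 h growth), filtered and dialysed into 50 mM Tris pH 7.4, 2.5 mM CaCl2. Mixed 1:1 with Elastin Congo Red (20 mg/mL) plus 0.01% Triton X-100 and compound (routinely 50 and 25 μM), 24 h at 37 °C shaking. Dye release at OD520 gives % inhibition versus DMSO.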

T2 sequence (P14756 198-498): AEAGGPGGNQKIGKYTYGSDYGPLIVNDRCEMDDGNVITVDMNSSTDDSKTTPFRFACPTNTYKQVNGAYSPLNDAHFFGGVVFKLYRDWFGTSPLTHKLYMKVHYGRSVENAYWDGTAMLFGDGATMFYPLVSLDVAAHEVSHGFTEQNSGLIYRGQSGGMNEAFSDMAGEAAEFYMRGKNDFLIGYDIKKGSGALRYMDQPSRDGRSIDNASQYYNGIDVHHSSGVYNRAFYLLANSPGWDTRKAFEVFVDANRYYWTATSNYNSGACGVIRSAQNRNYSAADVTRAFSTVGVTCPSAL
T1 sequence (P14756 198-498): as above

SMILES | Ki [1] [µM] | inhibition at 50 µM [2] [%] | Ki [3] [µM] | inhibition at 50 µM [4] [%]
CCOc1ccc2nc(CNC(=O)C3(CC(=O)O)Cc4ccccc4C3)sc2c1 [Example 108, 2-[2-[(6-ethoxy-1,3-benzothiazol-2-yl)methylcarbamoyl]indan-2-yl]acetic acid] | < 0.3 | > 60 | – | –
COC(=O)[C@H](Cc1c[nH]c2ccccc12)NC(=O)C1(CC(=O)O)Cc2ccccc2C1 [Example 53, (S)-2-(2-((3-(1H-indol-3-yl)-1-methoxy-1-oxopropan-2-yl)carbamoyl)-2,3-dihydro-1H-inden-2-yl)acetic acid] | – | – | 0.3 to 2 | > 60
N[C@H]1CCN(c2ccc3sc(CNC(=O)C4(CC(=O)O)Cc5ccccc5C4)nc3c2)C1 [Example 103, 2-[2-[[5-[(3 S)-3-aminopyrrolidin-1-yl]-1,3-benzothiazol-2-yl]methylcarbamoyl]indan-2-yl]acetic acid] | – | – | 0.3 to 2 | > 60
Cc1c(CNC(=O)C2(CC(=O)O)Cc3ccccc3C2)oc2ccccc12 [Example 11, 2-(2-{[2-(3-methyl-1-benzofuran-2-yl)methyl]carbamoyl}-2,3-dihydro-1H-inden-2-yl)acetic acid] | – | – | 0.3 to 2 | 30 to 60
C[N+](C)(C)C1CN(c2ccc3sc(CNC(=O)C4(CC(=O)[O-])Cc5ccccc5C4)nc3c2)C1 [Example 75, 2-[2-[[5-[3-(trimethylammonio)azetidin-1-yl]-1,3-benzothiazol-2-yl]methylcarbamoyl]indan-2-yl]acetate] | – | – | 0.3 to 2 | > 60
NC/C=C/c1ccc2sc(CNC(=O)C3(CC(=O)O)Cc4ccccc4C3)nc2c1 [Example 87, 2-[2-[[5-[(E)-3-aminoprop-1-enyl]-1,3-benzothiazol-2-yl]methylcarbamoyl]indan-2-yl]acetic acid] | – | – | 0.3 to 2 | > 60
C[N+](C)(C)C[C@H]1C[C@H](c2ccc3nc(CNC(=O)C4(CC(=O)[O-])Cc5ccccc5C4)sc3c2)C1 [Example 92, 2-[2-[[6-[(1r,3r)-3-[(trimethylammonio)methyl]cyclobutyl]-1,3-benzothiazol-2-yl]methylcarbamoyl]indan-2-yl]acetate] | – | – | 0.3 to 2 | > 60
O=C(O)CC1(C(=O)NCc2ccc3ccccc3n2)Cc2ccccc2C1 [Example 55, 2-(2-((quinolin-2-ylmethyl)carbamoyl)-2,3-dihydro-1H-inden-2-yl)acetic acid] | – | – | 0.3 to 2 | > 60
COc1ccc2sc(CNC(=O)C3(CC(=O)O)Cc4ccccc4C3)nc2c1 [Example 24, 2-[2-[(5-methoxy-1,3-benzothiazol-2-yl)methylcarbamoyl]indan-2-yl]acetic acid] | – | – | < 0.3 | > 60
CN1CCC(OC(=O)[C@H](Cc2c[nH]c3ccccc23)NC(=O)C2(CC(=O)O)Cc3ccccc3C2)CC1 [Example 45, 2-(2-{[(2S)-3-(1H-indol-3-yl)-1-[(1-methylpiperidin-4-yl)oxy]-1-oxopropan-2-yl]carbamoyl}-2,3-dihydro-1H-inden-2-yl)acetic acid] | – | – | < 0.3 | > 60
O=C(O)CC1(C(=O)NCc2nc3cc(Cl)ccc3s2)Cc2ccccc2C1 [Example 25, 2-[2-[(5-chloro-1,3-benzothiazol-2-yl)methylcarbamoyl]indan-2-yl]acetic acid] | – | – | < 0.3 | > 60
NC(=O)[C@H](Cc1ccc(O)cc1)NC(=O)C1(CC(=O)O)Cc2ccccc2C1 [Example 48, (S)-2-(2-((1-amino-3-(4-hydroxyphenyl)-1-oxopropan-2-yl)carbamoyl)-2,3-dihydro-1H-inden-2-yl)acetic acid] | – | – | 2 to 10 | 30 to 60
Cn1cnc(CNC(=O)C2(CC(=O)O)Cc3ccccc3C2)c1 [Example 21, 2-[2-[(1-methylimidazol-4-yl)methylcarbamoyl]indan-2-yl]acetic acid] | – | – | 2 to 10 | 30 to 60
O=C(O)CC1(C(=O)NCc2nc3ccccc3s2)Cc2ccccc2C1 [Example 10, 2-(2-{[(1,3-Benzothiazol-2-yl)methyl]carbamoyl}-2,3-dihydro-1H-inden-2-yl)acetic acid] | – | – | < 0.3 | > 60
O=C(O)CC1(C(=O)NCC2COc3ccccc3O2)Cc2ccccc2C1 (stereo not shown) [Example 17, 2-[2-(2,3-dihydro-1,4-benzodioxin-3-ylmethylcarbamoyl)indan-2-yl]acetic acid] | – | – | 0.3 to 2 | 30 to 60
CN1CC2(C1)CN(c1ccc3nc(CNC(=O)C4(CC(=O)O)Cc5ccccc5C4)sc3c1)C2 [Example 71, 2-[2-[[6-(6-methyl-2,6-diazaspiro[3.3]heptan-2-yl)-1,3-benzothiazol-2-yl]methylcarbamoyl]indan-2-yl]acetic acid] | – | – | < 0.3 | > 60
O=C(O)CC1(C(=O)NCc2cc3ccccc3o2)Cc2ccccc2C1 [Example 5, 2-(2-{[(1-Benzofuran-2-yl)methyl]carbamoyl}-2,3-dihydro-1H-inden-2-yl)acetic acid] | – | – | 0.3 to 2 | 30 to 60
CN(C)CCCc1ccc2sc(CNC(=O)C3(CC(=O)O)Cc4ccccc4C3)nc2c1 [Example 89, 2-[2-[[5-[3-(dimethylamino)propyl]-1,3-benzothiazol-2-yl]methylcarbamoyl]indan-2-yl]acetic acid] | – | – | 0.3 to 2 | > 60
NCCCc1ccc2sc(CNC(=O)C3(CC(=O)O)Cc4ccccc4C3)nc2c1 [Example 40, 2-[2-[[5-(3-aminopropyl)-1,3-benzothiazol-2-yl]methylcarbamoyl]indan-2-yl]acetic acid] | – | – | < 0.3 | > 60
CN(C)CCNc1ccc2sc(CNC(=O)C3(CC(=O)O)Cc4ccccc4C3)nc2c1 [Example 76, 2-[2-[[5-[2-(dimethylamino)ethylamino]-1,3-benzothiazol-2-yl]methylcarbamoyl]indan-2-yl]acetic acid] | – | – | 0.3 to 2 | > 60
